Measured values as given in PubChem BioAssay (NCI).
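1) Cells in 96-well plates. 2) Compound, 48 h, 5 concentrations. 3) Linear interpolation between surrounding doses. 4) Unreached endpoint = highest concentration. At the TGI there is no net growth.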

What was measured:
Assay in all cases: NCI anticancer screen, dose series, 48 h
[1] = tested on: SF-295 CNS
[2] = tested on: SN12C renal
[3] = tested on: SR leukemia
[4] = tested on: HOP-62 NSCLC
[5] = tested on: NCI-H23 lung
[6] = tested on: SNB-19 CNS
[7] = tested on: K-562 leukemia
[8] = tested on: SF-539 CNS
[9] = tested on: UACC-62 melanoma
[10] = tested on: UACC-257 melanoma
[11] = tested on: NCI-H226 lung
[12] = tested on: MALME-3M melanoma
[13] = tested on: HCT-15 colon
[14] = tested on: CAKI-1 renal
[15] = tested on: SK-MEL-2 melanoma

c1ccc2c(OCC3CO3)ccc(OCC3CO3)c2c1 (centres undefined)
TGI [1]: 14.1 µM | TGI [2]: 11.5 µM | TGI [3]: 11.1 µM | TGI [4]: 10.9 µM | TGI [5]: 6.67 µM | TGI [6]: 21 µM | TGI [7]: 16.8 µM | TGI [8]: 4.8 µM | TGI [9]: 12.2 µM | TGI [10]: 20 µM | TGI [11]: 27.7 µM | TGI [12]: 20.5 µM | TGI [13]: 14.9 µM | TGI [14]: 3.32 µM

[N-]=[N+]=Nc1cc(=O)n(-c2ccccc2)c(=O)n1-c1ccccc1
TGI [1]: > 100 µM | TGI [2]: > 100 µM | TGI [3]: > 100 µM | TGI [4]: > 100 µM | TGI [5]: > 100 µM | TGI [6]: > 100 µM | TGI [7]: > 100 µM | TGI [8]: > 100 µM | TGI [15]: > 100 µM | TGI [9]: > 100 µM | TGI [10]: > 100 µM | TGI [11]: > 100 µM | TGI [12]: > 100 µM | TGI [14]: > 100 µM

CC1=C/C(=N\N(C)C)C(C(O)(C(F)(F)F)C(F)(F)F)C(C)(C)C1 (centres undefined)
TGI [1]: > 100 µM | TGI [2]: > 100 µM | TGI [3]: > 100 µM | TGI [4]: > 100 µM | TGI [5]: > 100 µM | TGI [6]: > 100 µM | TGI [7]: > 100 µM | TGI [8]: > 100 µM | TGI [15]: > 100 µM | TGI [9]: > 100 µM | TGI [10]: > 100 µM | TGI [11]: > 100 µM | TGI [12]: > 100 µM | TGI [13]: > 100 µM | TGI [14]: > 100 µM

CC(C)C1=CC(=O)C(C)(C2=NC(C)(C)CO2)c2ccccc21 (centres undefined)
TGI [1]: > 100 µM | TGI [2]: > 100 µM | TGI [3]: > 100 µM | TGI [4]: > 100 µM | TGI [5]: > 100 µM | TGI [6]: > 100 µM | TGI [7]: > 100 µM | TGI [8]: > 100 µM | TGI [15]: > 100 µM | TGI [9]: > 100 µM | TGI [10]: > 100 µM | TGI [11]: > 100 µM | TGI [12]: > 100 µM | TGI [13]: > 100 µM | TGI [14]: > 100 µM

CCCCC1(OC(=O)CCC(=O)O)CCC2(CCC(C)C(C/C=C(C)/C=C/C(O)C(C)/C=C/C(=O)O)O2)OC1CC/C(C)=C/C(=O)O (centres undefined)
TGI [1]: 15.8 µM | TGI [2]: 9.2 µM | TGI [3]: > 48.7 µM | TGI [4]: 4.96 µM | TGI [5]: 3.49 µM | TGI [6]: 11.8 µM | TGI [7]: 9.99 µM | TGI [8]: 3.51 µM | TGI [15]: 3.18 µM | TGI [9]: 2.62 µM | TGI [10]: 2.57 µM | TGI [11]: 6.1 µM | TGI [12]: 20.3 µM | TGI [13]: 12.4 µM | TGI [14]: 15.3 µM

O=C(O)c1ccccc1C(=O)OCC1CCCN2CCCCC12 (centres undefined)
TGI [1]: > 100 µM | TGI [2]: > 100 µM | TGI [3]: > 100 µM | TGI [4]: > 100 µM | TGI [5]: > 100 µM | TGI [6]: > 100 µM | TGI [7]: > 100 µM | TGI [8]: > 100 µM | TGI [15]: > 100 µM | TGI [9]: > 100 µM | TGI [10]: > 100 µM | TGI [11]: > 100 µM | TGI [12]: > 100 µM | TGI [13]: > 100 µM | TGI [14]: > 100 µM

CC(C)[Si](OCC/C=C/C1CCC(=O)C1C(O)C1CCCCC1)(C(C)C)C(C)C (centres undefined)
TGI [1]: 31.8 µM | TGI [2]: 34.4 µM | TGI [3]: 14.8 µM | TGI [4]: 31.3 µM | TGI [5]: 29 µM | TGI [6]: 32.6 µM | TGI [7]: 47 µM | TGI [8]: 40.6 µM | TGI [15]: 26.9 µM | TGI [9]: 29.7 µM | TGI [10]: 29.5 µM | TGI [11]: 30 µM | TGI [12]: 29.1 µM | TGI [13]: 30.6 µM | TGI [14]: 28.5 µM

COCC1OCCN1C (centres undefined)
TGI [1]: > 100 µM | TGI [3]: > 100 µM | TGI [4]: > 100 µM | TGI [5]: > 100 µM | TGI [6]: > 100 µM | TGI [7]: > 100 µM | TGI [8]: > 100 µM | TGI [15]: > 100 µM | TGI [9]: > 100 µM | TGI [10]: > 100 µM | TGI [11]: > 100 µM | TGI [12]: > 100 µM | TGI [13]: > 100 µM | TGI [14]: > 100 µM

CCN(CC)CCN1CCN=c2c3cc(OC)ccc3n3cnc4ccc1c2c43
TGI [1]: 2.32 µM | TGI [2]: 3.38 µM | TGI [3]: 1.64 µM | TGI [4]: 3.46 µM | TGI [5]: 4.61 µM | TGI [6]: 3.04 µM | TGI [7]: 2.68 µM | TGI [8]: 0.969 µM | TGI [15]: 2.18 µM | TGI [9]: 7.3 µM | TGI [10]: 3.74 µM | TGI [11]: 5.3 µM | TGI [12]: 2.74 µM | TGI [13]: 1.9 µM | TGI [14]: 2.23 µM

CC1=C(C(=O)OC23CC4CC(CC(C4)C2)C3)C(c2ccccc2OC(F)F)C(C(=O)OC23CC4CC(CC(C4)C2)C3)=C(C)N1 (centres undefined)
TGI [1]: > 100 µM | TGI [2]: > 100 µM | TGI [3]: > 100 µM | TGI [4]: > 100 µM | TGI [5]: > 100 µM | TGI [6]: > 100 µM | TGI [8]: > 100 µM | TGI [15]: > 100 µM | TGI [9]: > 100 µM | TGI [10]: > 100 µM | TGI [11]: > 100 µM | TGI [12]: > 100 µM | TGI [13]: > 100 µM | TGI [14]: > 100 µM

COc1ccc2c(c1)-c1c(c3ccccc3n1CCN1CCCCC1)CC2
TGI [1]: 34.4 µM | TGI [2]: > 83.9 µM | TGI [3]: 30.9 µM | TGI [4]: > 63.1 µM | TGI [5]: 38.8 µM | TGI [6]: 66.4 µM | TGI [7]: 18 µM | TGI [8]: 39.3 µM | TGI [15]: 16.7 µM | TGI [9]: 36.5 µM | TGI [10]: 54.9 µM | TGI [11]: 37.5 µM | TGI [12]: 39.3 µM | TGI [13]: 27.7 µM | TGI [14]: > 75.2 µM

COc1ccccc1NC(=S)Nc1cccc(C)n1
TGI [1]: > 100 µM | TGI [2]: > 100 µM | TGI [3]: > 100 µM | TGI [4]: > 100 µM | TGI [6]: > 100 µM | TGI [7]: > 100 µM | TGI [8]: > 100 µM | TGI [15]: > 100 µM | TGI [9]: > 100 µM | TGI [10]: > 100 µM | TGI [11]: > 100 µM | TGI [12]: > 100 µM | TGI [13]: > 100 µM | TGI [14]: > 100 µM

c1ccc2c(c1)n1c(N3CCOCC3)[n+]3ccccc3c1c1c3cccc[n+]3c(N3CCOCC3)n21
TGI [1]: > 100 µM | TGI [2]: > 100 µM | TGI [3]: > 100 µM | TGI [5]: > 100 µM | TGI [6]: > 100 µM | TGI [7]: > 100 µM | TGI [8]: > 100 µM | TGI [15]: > 100 µM | TGI [9]: > 100 µM | TGI [10]: > 100 µM | TGI [11]: > 100 µM | TGI [12]: > 100 µM | TGI [13]: > 100 µM | TGI [14]: > 100 µM

CCCOc1ccc(/C=C/C2=[N+](CCO)CCO2)cc1
TGI [1]: > 100 µM | TGI [2]: > 100 µM | TGI [3]: > 100 µM | TGI [4]: > 100 µM | TGI [5]: > 100 µM | TGI [6]: > 100 µM | TGI [7]: > 100 µM | TGI [8]: > 100 µM | TGI [15]: > 100 µM | TGI [9]: > 100 µM | TGI [10]: > 100 µM | TGI [11]: > 100 µM | TGI [12]: > 100 µM | TGI [13]: > 100 µM | TGI [14]: > 100 µM

COC(=O)c1cccc(C)c1C1CN=NC12Cc1c(ccc(C)c1C)C2=O (centres undefined)
TGI [2]: > 100 µM | TGI [3]: > 100 µM | TGI [4]: > 100 µM | TGI [5]: > 100 µM | TGI [6]: > 100 µM | TGI [7]: > 100 µM | TGI [8]: > 100 µM | TGI [10]: > 100 µM | TGI [11]: > 100 µM | TGI [12]: 78.1 µM | TGI [13]: > 100 µM | TGI [14]: > 100 µM

CN(C)Cc1cc(C(=O)/C=C/c2c(Cl)cccc2Cl)cc(CN(C)C)c1O
TGI [1]: 23.1 µM | TGI [2]: 21 µM | TGI [3]: 22.6 µM | TGI [4]: 20.2 µM | TGI [5]: 34.2 µM | TGI [6]: 31 µM | TGI [7]: 13.4 µM | TGI [8]: 34.4 µM | TGI [10]: 16.9 µM | TGI [11]: 32.4 µM | TGI [12]: 15.7 µM | TGI [13]: 24.2 µM | TGI [14]: 6.74 µM
